Experimental data published in PMC4540356 (Thrombosis and haemostasis, 2010).

Experiments:
[1] = tested on: endothelial cells; conditions: thrombin immobilised to a surface, ref [15]–[17]; cited from earlier work
[2] = target: T1, integrin αvβ3 (Homo sapiens, UniProt P05106+P06756); assay: Adhesion of HEK-αvβ3 cells to immobilised TP508 peptides; assay type: cell-based; conditions: calcein AM-labelled cells, 30 min, 37°C, fluorescence (Ex485/Em530), n=3
[3] = target: T1, integrin αvβ3; assay: Surface plasmon resonance, binding to integrin αvβ3; conditions: BIAcore 2000, CM5 chip, 1,290 RU RAD-TP508, αvβ3 0.053 to 1.06 μM
[4] = tested on: HUVEC; assay: Adhesion of HUVEC to immobilised TP508 peptides; assay type: cell-based, human; conditions: calcein AM-labelled cells, 30 min, 37°C, fluorescence, n=3
[5] = tested on: HUVEC; assay: Inhibition of HUVEC adhesion to immobilised fibrinogen by soluble peptide; assay type: cell-based, human; conditions: wells coated with 1 μg/ml fibrinogen; 30 min, n=3
[6] = tested on: rat aortic rings; assay: Muscle-bath assay, carbachol-induced vasorelaxation of rat aortic rings; parameters: species or system rat (Sprague Dawley); conditions: no TP508, 500 nM norepinephrine 10 min, cumulative 750 nM carbachol; n=3 aortas
[7] = target: T1, integrin αvβ3; assay: Inhibition of HEK-αvβ3 adhesion to immobilised fibrinogen by soluble peptide; assay type: cell-based; conditions: wells coated with 1 μg/ml fibrinogen; 30 min, n=3
[8] = tested on: HUVEC; assay: Nitric oxide assay in HUVEC; assay type: cell-based, human; conditions: 150 μg/ml TP508 vs 20 μM A23187, 1 h, n=4 (p>0.05)
[9] = target: αvβ3; conditions: read-out: affinity of αvβ3 to ligand; ref [30]–[31]; cited from earlier work

T1 sequence (P06756 31-889 limits assumed): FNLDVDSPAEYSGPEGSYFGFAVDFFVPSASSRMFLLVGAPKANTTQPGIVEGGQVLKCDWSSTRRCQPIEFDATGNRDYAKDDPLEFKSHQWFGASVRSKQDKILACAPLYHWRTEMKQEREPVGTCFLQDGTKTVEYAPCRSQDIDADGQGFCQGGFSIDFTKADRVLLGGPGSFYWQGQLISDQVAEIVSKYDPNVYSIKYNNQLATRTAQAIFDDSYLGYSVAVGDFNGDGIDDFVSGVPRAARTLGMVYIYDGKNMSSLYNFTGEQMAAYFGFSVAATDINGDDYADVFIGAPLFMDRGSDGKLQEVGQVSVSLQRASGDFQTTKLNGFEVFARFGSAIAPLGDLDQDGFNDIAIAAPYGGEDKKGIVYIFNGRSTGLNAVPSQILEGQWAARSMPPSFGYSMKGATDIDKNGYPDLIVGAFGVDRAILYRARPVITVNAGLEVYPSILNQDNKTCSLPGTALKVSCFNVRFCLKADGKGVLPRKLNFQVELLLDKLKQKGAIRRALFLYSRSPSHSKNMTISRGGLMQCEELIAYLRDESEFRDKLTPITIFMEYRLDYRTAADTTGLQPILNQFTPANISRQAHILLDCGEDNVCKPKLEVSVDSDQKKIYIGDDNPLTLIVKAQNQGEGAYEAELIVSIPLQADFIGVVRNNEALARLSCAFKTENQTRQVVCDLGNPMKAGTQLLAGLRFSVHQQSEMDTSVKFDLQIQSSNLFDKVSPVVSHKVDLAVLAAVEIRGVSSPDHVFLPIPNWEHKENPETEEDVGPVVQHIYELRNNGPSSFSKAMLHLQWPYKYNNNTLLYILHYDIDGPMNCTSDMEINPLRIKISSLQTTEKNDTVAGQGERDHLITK
T1 sequence (P06756 891-1048 partner limits assumed): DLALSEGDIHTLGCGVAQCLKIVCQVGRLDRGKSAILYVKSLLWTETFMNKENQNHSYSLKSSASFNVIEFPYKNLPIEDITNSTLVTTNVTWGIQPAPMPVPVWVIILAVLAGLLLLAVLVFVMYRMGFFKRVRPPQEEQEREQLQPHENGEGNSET
T1 sequence (P05106 27-788): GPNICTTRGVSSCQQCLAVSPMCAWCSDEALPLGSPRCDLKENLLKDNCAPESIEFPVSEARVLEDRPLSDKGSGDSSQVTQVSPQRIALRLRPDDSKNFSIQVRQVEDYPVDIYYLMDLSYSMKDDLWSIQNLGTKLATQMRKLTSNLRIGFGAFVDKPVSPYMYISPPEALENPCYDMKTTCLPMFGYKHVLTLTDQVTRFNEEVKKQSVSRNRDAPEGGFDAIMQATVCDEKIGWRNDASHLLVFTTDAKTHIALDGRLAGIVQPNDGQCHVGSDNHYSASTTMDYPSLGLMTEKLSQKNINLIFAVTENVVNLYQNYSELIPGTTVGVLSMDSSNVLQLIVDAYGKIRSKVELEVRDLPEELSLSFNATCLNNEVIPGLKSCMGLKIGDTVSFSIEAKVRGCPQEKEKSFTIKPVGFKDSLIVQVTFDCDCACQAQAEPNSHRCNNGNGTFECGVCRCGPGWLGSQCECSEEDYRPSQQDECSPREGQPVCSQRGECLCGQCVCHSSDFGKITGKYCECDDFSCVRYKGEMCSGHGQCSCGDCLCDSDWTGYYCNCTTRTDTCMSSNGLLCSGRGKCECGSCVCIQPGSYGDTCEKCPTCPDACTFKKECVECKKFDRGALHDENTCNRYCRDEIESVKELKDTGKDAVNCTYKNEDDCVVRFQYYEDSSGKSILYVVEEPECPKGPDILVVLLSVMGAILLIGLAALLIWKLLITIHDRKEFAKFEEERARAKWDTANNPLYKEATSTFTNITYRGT

Thrombin
endothelial cell adhesion to immobilised thrombin [1]: support endothelial cell adhesion in an RGD-dependent manner

AGYKPDEGKRADACEGDSGGPFV [RAD-TP508]
adhesion of HEK-αvβ3 cells to immobilised peptide [2]: did not support HEK-αvβ3 adhesion
binding of αvβ3 to coupled peptide (SPR) [3]: No binding
adhesion of HUVEC to immobilised peptide [4]: did not support HUVEC adhesion
effect of soluble peptide on HUVEC adhesion to immobilised fibrinogen [5]: did not affect HUVEC adhesion to immobilised fibrinogen

C[N+](C)(C)CCOC(N)=O [carbachol]
vasorelaxation by carbachol in rings not treated with TP508, 750 nM [6]: 20%

GRGDSP
effect of soluble peptide on HEK-αvβ3 adhesion to immobilised fibrinogen [7]: effectively inhibited cell adhesion

KAPSEVDKAGDRDGYGFCGGPGE [scrTP508]
adhesion of HEK-αvβ3 cells to immobilised peptide [2]: did not support HEK-αvβ3 adhesion
adhesion of HUVEC to immobilised peptide [4]: did not support HUVEC adhesion
effect of soluble peptide on HUVEC adhesion to immobilised fibrinogen [5]: did not affect HUVEC adhesion to immobilised fibrinogen

CNc1ccc2oc(C[C@H]3O[C@@]4(CC[C@H]3C)O[C@H]([C@H](C)C(=O)c3ccc[nH]3)[C@H](C)C[C@H]4C)nc2c1C(=O)O [A23187]
NO induction by TP508 compared with A23187 [8]: a potent inducer of NO

fibrinogen: Human fibrinogen
Kd [9]: 0.064 µM

vitronectin: physiological ligand of αvβ3
Kd [9]: 0.027 µM
